Reference: ChEMBL document CHEMBL1201862, “PubChem BioAssay data set” (2004)
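Step 1: Grow cells in 96-well plates. Step 2: Expose to compound for 48 hours at 5 concentrations. Step 3: Interpolate endpoints linearly; if unreached, use highest concentration. GI50 = concentration required for 50% inhibition of growth.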 Activity calls are given as the source filed them. No stated cut-off is given here; in the data, active = GI50 up to about 1.1 µM and inactive = higher.

What was measured:
Test in all cases: DTP human tumour cell line panel, 48 h
OVCAR-3 = test system: OVCAR-3
SNB-19 = test system: SNB-19
K562 = test system: K562
MDA-MB-231 = test system: MDA-MB-231
HCT-15 = test system: HCT-15
786-0 = test system: 786-0
COLO 205 = test system: COLO 205
U-251 = test system: U-251
RPMI-8226 = test system: RPMI-8226
KM12 = test system: KM12
HT-29 = test system: HT-29
SR = test system: SR
HOP-92 = test system: HOP-92
SF-295 = test system: SF-295
SF-268 = test system: SF-268
SK-MEL-2 = test system: SK-MEL-2
SK-MEL-28 = test system: SK-MEL-28
NCI-H522 = test system: NCI-H522
NCI-H460 = test system: NCI-H460
Hs-578T = test system: Hs-578T

Row | Structure (SMILES) | GI50 (OVCAR-3) | GI50 (SNB-19) | GI50 (K562) | GI50 (MDA-MB-231) | GI50 (HCT-15) [µM] | GI50 (786-0) | GI50 (COLO 205) | GI50 (U-251) | GI50 (RPMI-8226) | GI50 (KM12) | GI50 (HT-29) | GI50 (SR) | GI50 (HOP-92) | GI50 (SF-295) | GI50 (SF-268) | GI50 (SK-MEL-2) | GI50 (SK-MEL-28) | GI50 (NCI-H522) | GI50 (NCI-H460) | GI50 (Hs-578T)
1 | CC(C)(C)NC(=O)/C(=C\Sc1ccccc1)c1ccc2c(c1)OCO2 | 30.8 µM (inactive) | 38.7 µM (inactive) | 43.6 µM (inactive) | 21.8 µM (inactive) | 30.8 | 31.9 µM (inactive) | 22.4 µM (inactive) | 30 µM (inactive) | 22.8 µM (inactive) | 32.4 µM (inactive) | 17.9 µM (inactive) | 25.8 µM (inactive) | 15.5 µM (inactive) | 39.1 µM (inactive) | 16.2 µM (inactive) | 15.5 µM (inactive) | 49 µM (inactive) | 17.9 µM (inactive) | – | –
2 | N#C[BH2-][n+]1cn(C2CC(O)C(COP(=O)(O)OC3CC(n4cnc5c(=O)[nH]c(N)nc54)OC3CO)O2)c2nc(N)[nH]c(=O)c21 (stereo not drawn) | > 100 µM (inactive) | > 100 µM (inactive) | – | > 100 µM (inactive) | > 100 | > 100 µM (inactive) | > 100 µM (inactive) | > 100 µM (inactive) | – | > 100 µM (inactive) | > 100 µM (inactive) | 1 µM (active) | > 100 µM (inactive) | > 100 µM (inactive) | > 100 µM (inactive) | > 100 µM (inactive) | > 100 µM (inactive) | > 100 µM (inactive) | > 100 µM (inactive) | –
3 | Cc1[nH]c2ncn(/N=C/c3ccccc3)c(=N)c2c1Cc1ccccc1 | > 100 µM (inactive) | > 100 µM (inactive) | > 100 µM (inactive) | 58.1 µM (inactive) | > 100 | > 100 µM (inactive) | > 100 µM (inactive) | 98.6 µM (inactive) | > 100 µM (inactive) | 75.7 µM (inactive) | > 100 µM (inactive) | – | 42.4 µM (inactive) | > 100 µM (inactive) | > 100 µM (inactive) | 87.1 µM (inactive) | > 100 µM (inactive) | – | > 100 µM (inactive) | > 100 µM (inactive)
4 | CC(C)(C)OC(=O)C1/C(=C/CBr)CN1C(=O)OC(C)(C)C (stereo not drawn) | 14.7 µM (inactive) | 17.6 µM (inactive) | 2.73 µM (inactive) | – | 8.67 | 11.2 µM (inactive) | 2.56 µM (inactive) | – | 3.98 µM (inactive) | – | 23.7 µM (inactive) | – | 13.9 µM (inactive) | 15.9 µM (inactive) | 4.85 µM (inactive) | > 10 µM (inactive) | 17.7 µM (inactive) | – | 16.7 µM (inactive) | 22 µM (inactive)
